Assays:
Assay in all cases: Test C pre-/postemergence greenhouse test
Type in all cases: in vivo
[1] = system: barnyardgrass (Echinochloa crus-galli); conditions: scale 0 to 100
Description: (§1) Seeds of plant species selected from blackgrass (Alopecurus myosuroides), ryegrass, Italian (Lolium multiflorum), wheat, winter (winter wheat, Triticum aestivum), galium (catchweed bedstraw, Galium aparine), corn (Zea mays), crabgrass, large (Digitaria sanguinalis), foxtail, giant (Setaria faberii), johnsongrass (Sorghum halepense), lambsquarters (Chenopodium album), morningglory (Ipomoea coccinea), nutsedge, yellow (Cyperus esculentus), pigweed (Amaranthus retroflexus), ragweed (common ragweed, Ambrosia elatior), soybean (Glycine max), barnyardgrass (Echinochloa crus-galli), oilseed rape (Brassica napus), waterhemp (common waterhemp, Amaranthus rudis), pigweed, palmer (Amaranthus palmeri), kochia (Kochia scoparia), oat, wild (Avena fatua), surinam grass (Brachiaria decumbens), windgrass (Apera spica-venti), poinsettia, wild (Euphorbia heterophylla) and velvetleaf (Abutilon theophrasti) were planted into a silt loam soil and treated preemergence with test chemicals formulated in a non-phytotoxic solvent mixture which included a surfactant.
(§2) At the same time, plants selected from these crop and weed species and also chickweed (common chickweed, Stellaria media), buckwheat, wild (Polygonum convolvulus), mustard, wild (Sinapis arvensis), field poppy (Papaver rhoeas), field violet (Viola arvensis), nightshade (eastern black nightshade, Solanum ptycanthum), speedwell (bird's-eye speedwell, Veronica persica), horseweed (Conyza canadensis), cutleaf geranium (Geranium dissectum), and Canada thistle (Cirsium arvense) were planted in pots containing Redi-Earth® planting medium (Scotts Company, 14111 Scottslawn Road, Marysville, Ohio 43041) comprising spaghnum peat moss, vermiculite, wetting agent and starter nutrients and treated with postemergence applications of test chemicals formulated in the same manner. Plants ranged in height from 2 to 18 cm (1- to 4-leaf stage) for postemergence treatments. Treated plants and controls were maintained in a greenhouse for 13 to 21 d, after which time all species were compared to controls and visually evaluated. Plant response ratings, summarized in Table C-1 (postemergence) and C-2 (preemergence), are based on a scale of 0 to 100 where 0 is no effect and 100 is complete control. A dash (-) response means no test result.

[2] = system: blackgrass (Alopecurus myosuroides); conditions: scale 0 to 100
Description: as §1, §2

corn (Zea mays) = conditions: scale 0 to 100
Description: as §1, §2

[3] = system: crabgrass, large (Digitaria sanguinalis); conditions: scale 0 to 100
Description: as §1, §2

[4] = system: galium (catchweed bedstraw, Galium aparine); conditions: scale 0 to 100
Description: as §1, §2

[5] = system: johnsongrass (Sorghum halepense); conditions: Preemergence, scale 0 to 100
Description: as §1, §2

[6] = system: lambsquarters (Chenopodium album); conditions: Preemergence, scale 0 to 100
Description: as §1, §2

[7] = system: morningglory (Ipomoea coccinea); conditions: Preemergence, scale 0 to 100
Description: as §1, §2

[8] = system: oilseed rape (Brassica napus); conditions: Preemergence, scale 0 to 100
Description: as §1, §2

[9] = system: poinsettia, wild (Euphorbia heterophylla); conditions: Preemergence, scale 0 to 100
Description: as §1, §2

[10] = system: ragweed (common ragweed, Ambrosia elatior); conditions: scale 0 to 100
Description: as §1, §2

soybean (Glycine max) = conditions: scale 0 to 100
Description: as §1, §2

[11] = system: windgrass (Apera spica-venti); conditions: Preemergence, scale 0 to 100
Description: as §1, §2

Cc1ccc2ccc(F)cc2c1-c1c(O)c(Cl)nn(C)c1=O [Cpd. No. 21]
Plant response rating, Barnyardgrass ([1]; Postemergence, 16 g ai/ha): 60 | Plant response rating, Barnyardgrass ([1]; Postemergence, 31 g ai/ha): 85 | Plant response rating, Barnyardgrass ([1]; Postemergence, 62 g ai/ha): 90 | Plant response rating, Barnyardgrass ([1]; Postemergence, 125 g ai/ha): 90 | Plant response rating, Barnyardgrass ([1]; Preemergence, 31 g ai/ha): 75 | Plant response rating, Barnyardgrass ([1]; Preemergence, 61 g ai/ha): 25 | Plant response rating, Barnyardgrass ([1]; Preemergence, 62 g ai/ha): 85 | Plant response rating, Barnyardgrass ([1]; Preemergence, 125 g ai/ha): 95 | Plant response rating, Blackgrass ([2]; Postemergence, 16 g ai/ha): 35 | Plant response rating, Blackgrass ([2]; Postemergence, 31 g ai/ha): 60 | Plant response rating, Blackgrass ([2]; Postemergence, 62 g ai/ha): 65 | Plant response rating, Blackgrass ([2]; Postemergence, 125 g ai/ha): 70 | Plant response rating, Blackgrass ([2]; Preemergence, 31 g ai/ha): 50 | Plant response rating, Blackgrass ([2]; Preemergence, 61 g ai/ha): 35 | Plant response rating, Blackgrass ([2]; Preemergence, 62 g ai/ha): 85 | Plant response rating, Blackgrass ([2]; Preemergence, 125 g ai/ha): 85 | Plant response rating, Corn (corn (Zea mays); Postemergence, 16 g ai/ha): 0 | Plant response rating, Corn (corn (Zea mays); Postemergence, 31 g ai/ha): 0 | Plant response rating, Corn (corn (Zea mays); Postemergence, 62 g ai/ha): 15 | Plant response rating, Corn (corn (Zea mays); Postemergence, 125 g ai/ha): 18 | Plant response rating, Corn (corn (Zea mays); Preemergence, 31 g ai/ha): 0 | Plant response rating, Corn (corn (Zea mays); Preemergence, 61 g ai/ha): 0 | Plant response rating, Corn (corn (Zea mays); Preemergence, 62 g ai/ha): 5 | Plant response rating, Corn (corn (Zea mays); Preemergence, 125 g ai/ha): 20 | Plant response rating, Crabgrass, Large ([3]; Postemergence, 16 g ai/ha): 40 | Plant response rating, Crabgrass, Large ([3]; Postemergence, 31 g ai/ha): 70 | Plant response rating, Crabgrass, Large ([3]; Postemergence, 62 g ai/ha): 40 | Plant response rating, Crabgrass, Large ([3]; Postemergence, 125 g ai/ha): 70 | Plant response rating, Crabgrass, Large ([3]; Preemergence, 31 g ai/ha): 25 | Plant response rating, Crabgrass, Large ([3]; Preemergence, 61 g ai/ha): 0 | Plant response rating, Crabgrass, Large ([3]; Preemergence, 62 g ai/ha): 30 | Plant response rating, Crabgrass, Large ([3]; Preemergence, 125 g ai/ha): 65 | Plant response rating, Galium ([4]; Postemergence, 16 g ai/ha): 90 | Plant response rating, Galium ([4]; Postemergence, 31 g ai/ha): 95 | Plant response rating, Galium ([4]; Postemergence, 62 g ai/ha): 98 | Plant response rating, Galium ([4]; Postemergence, 125 g ai/ha): 78 | Plant response rating, Galium ([4]; Preemergence, 31 g ai/ha): 95 | Plant response rating, Galium ([4]; Preemergence, 61 g ai/ha): 90 | Plant response rating, Galium ([4]; Preemergence, 62 g ai/ha): 95 | Plant response rating, Galium ([4]; Preemergence, 125 g ai/ha): 95 | Plant response rating, Johnsongrass ([5]; 31 g ai/ha): 10 | Plant response rating, Johnsongrass ([5]; 61 g ai/ha): 5 | Plant response rating, Johnsongrass ([5]; 62 g ai/ha): 50 | Plant response rating, Johnsongrass ([5]; 125 g ai/ha): 65 | Plant response rating, Lambsquarters ([6]; 31 g ai/ha): 70 | Plant response rating, Lambsquarters ([6]; 61 g ai/ha): 75 | Plant response rating, Lambsquarters ([6]; 62 g ai/ha): 85 | Plant response rating, Lambsquarters ([6]; 125 g ai/ha): 98 | Plant response rating, Morningglory ([7]; 31 g ai/ha): 40 | Plant response rating, Morningglory ([7]; 61 g ai/ha): 5 | Plant response rating, Morningglory ([7]; 62 g ai/ha): 80 | Plant response rating, Morningglory ([7]; 125 g ai/ha): 95 | Plant response rating, Oilseed Rape ([8]; 31 g ai/ha): 85 | Plant response rating, Oilseed Rape ([8]; 61 g ai/ha): 0 | Plant response rating, Oilseed Rape ([8]; 62 g ai/ha): 98 | Plant response rating, Oilseed Rape ([8]; 125 g ai/ha): 100 | Plant response rating, Poinsettia, Wild ([9]; 31 g ai/ha): 5 | Plant response rating, Poinsettia, Wild ([9]; 61 g ai/ha): 0 | Plant response rating, Poinsettia, Wild ([9]; 62 g ai/ha): 10 | Plant response rating, Poinsettia, Wild ([9]; 125 g ai/ha): 25 | Plant response rating, Ragweed ([10]; Postemergence, 16 g ai/ha): 90 | Plant response rating, Ragweed ([10]; Postemergence, 31 g ai/ha): 95 | Plant response rating, Ragweed ([10]; Postemergence, 62 g ai/ha): 98 | Plant response rating, Ragweed ([10]; Postemergence, 125 g ai/ha): 98 | Plant response rating, Ragweed ([10]; Preemergence, 31 g ai/ha): 100 | Plant response rating, Ragweed ([10]; Preemergence, 61 g ai/ha): 45 | Plant response rating, Ragweed ([10]; Preemergence, 62 g ai/ha): 98 | Plant response rating, Ragweed ([10]; Preemergence, 125 g ai/ha): 95 | Plant response rating, Soybean (soybean (Glycine max); Postemergence, 16 g ai/ha): 10 | Plant response rating, Soybean (soybean (Glycine max); Postemergence, 31 g ai/ha): 13 | Plant response rating, Soybean (soybean (Glycine max); Postemergence, 62 g ai/ha): 20 | Plant response rating, Soybean (soybean (Glycine max); Postemergence, 125 g ai/ha): 23 | Plant response rating, Soybean (soybean (Glycine max); Preemergence, 31 g ai/ha): 0 | Plant response rating, Soybean (soybean (Glycine max); Preemergence, 61 g ai/ha): 0 | Plant response rating, Soybean (soybean (Glycine max); Preemergence, 62 g ai/ha): 0 | Plant response rating, Soybean (soybean (Glycine max); Preemergence, 125 g ai/ha): 0 | Plant response rating, Windgrass ([11]; 31 g ai/ha): 75 | Plant response rating, Windgrass ([11]; 61 g ai/ha): 50 | Plant response rating, Windgrass ([11]; 62 g ai/ha): 85 | Plant response rating, Windgrass ([11]; 125 g ai/ha): 98
